Reference: US11091472B2, “PI-kinase inhibitors with anti-infective activity” (The Board of Trustees of the Leland Stanford Junior …, priority 2016, dated 2021)
Entries after “also recorded” stand apart in the source; their conditions may differ.

Legend:
PI4KIIIB = PI4KIIIB (Bos taurus (Bovine), UniProt O02810); assay: PI4KIIIβ kinase assay (immunoprecipitated HA-tagged enzyme, [γ-32P]-ATP); format: biochemical; conditions: kinase activity
PI3K p110g = PI3K p110g (Homo sapiens (Human), UniProt P48736); assay: PI3K p110g kinase assay; format: biochemical; conditions: kinase activity
PI3KC2B = PI3KC2B (Homo sapiens (Human), UniProt O00750); assay: PI3KC2B kinase assay; format: biochemical; conditions: kinase activity
Protocol: PI-kinase assay: Compounds are tested in C.1.1. PI kinase assays as described by Shokat et al., “A membrane capture assay for lipid kinase activity.” Nat. Protoc. 2007; 2(10):2459-66.
(§1) Selected compounds of Table 1 and 2 were prepared and tested for inhibition activity in a variety of kinase assays.

PI3KC2G = PI3KC2G (Homo sapiens (Human), UniProt O75747); assay: PI3KC2G kinase assay; format: biochemical; conditions: kinase activity
Protocol: PI-kinase assay: Compounds are tested in C.1.1. PI kinase assays as described by Shokat et al., “A membrane capture assay for lipid kinase activity.” Nat. Protoc.
as §1

PI4KIIIA = PI4KIIIA (Homo sapiens (Human), UniProt P42356); assay: PI4KIIIα kinase assay (immunoprecipitated HA-tagged enzyme, [γ-32P]-ATP); format: biochemical; conditions: kinase activity
PI3K p110a = PI3K p110a (Homo sapiens (Human), UniProt P42336); assay: PI3K p110a kinase assay; format: biochemical; conditions: kinase activity
HCV2a = assay: microbe, parasite or virus in culture; format: cell-based, HCV; conditions: Hepatitis C virus, Huh7.5, read-out: HCV2a EC50
Cell toxicity (CC50) = format: cell-based; conditions: human, HuH-7 cells
PI(4)P = assay: Immunofluorescence of intracellular PI-4 pools in cells; format: cell-based; conditions: Huh7.5 cells, uninfected or HCV-infected, 250 nm, 500 nM or 1 uM
Protocol: (§2) To further confirm its mechanism of action the effect of (1) on PI-4 levels was determined in cells using immunofluorescence to monitor the intracellular localized pools of PI-4. The effect of (1) on intracellular pools of PIP2 was tested, which were predicted to be similarly sensitive to inhibition using (1). […] Uninfected Huh7.5 cells or HCV-infected Huh7.5 cells were used. Cells were treated with […], 500 nM or 1 uM concentrations of (1) or vehicle control, and analyzed by immunofluorescence with antibodies to PI(4)P or PI(4,5)P2 along with an antibody to calnexin to control for ER morphology.

PI(4,5)P2 = assay: Immunofluorescence of intracellular PIP2 pools in cells; format: cell-based; conditions: Huh7.5 cells, uninfected or HCV-infected, 250 nm, 500 nM or 1 uM
Protocol: as §2

ER-localized calnexin = assay: Calnexin co-staining as control for ER morphology; format: cell-based; conditions: co-stained with antibody to calnexin
Protocol: as §2

in vitro = format: cell-based
HCV replicon = HCV replicon system
HCV = HCV standard replication assay; conditions: Hepatitis C virus, read-out: EC50 against HCV
HRV = assay: Rhinovirus antiviral assay; format: cell-based; conditions: Human rhinovirus sp.
Ebola = assay: microbe, parasite or virus in culture; format: cell-based; conditions: Zaire ebolavirus, read-out: Ebola EC50
Coxsackie virus B3 = Coxsackie virus B3 cell based antiviral assay; conditions: Enterovirus B
Enterovirus 68 = Enterovirus 68 cell based antiviral assay; conditions: Enterovirus D
Enterovirus 71 = Enterovirus 71 cell based antiviral assay; conditions: Enterovirus A
Poliovirus (WM-3) = assay: microbe, parasite or virus in culture; format: cell-based; conditions: Enterovirus C, read-out: Poliovirus (WM-3) EC50 (uM)
NV (GT1) = NV (GT1) cell based antiviral assay
Protocol: Compounds of interest were tested in a variety of cell based assays for antiviral activity.

[1] = system: Adenovirus 5 (Adenoid 75); assay: Adenovirus 5 cell based antiviral assay; conditions: Human mastadenovirus C
Dengue virus 2 = Dengue virus 2 cell based antiviral assay
Influenza A virus H1N1 = Influenza A virus H1N1 cell based antiviral assay
MERS coronavirus = assay: microbe, parasite or virus in culture; format: cell-based; conditions: Middle East respiratory syndrome-related coronavirus, read-out: MERS coronavirus EC50 (uM)
EV71 = EV71 antiviral assay; format: cell-based; conditions: Enterovirus A

Chain of PI4KIIIB (O02810 whole entry): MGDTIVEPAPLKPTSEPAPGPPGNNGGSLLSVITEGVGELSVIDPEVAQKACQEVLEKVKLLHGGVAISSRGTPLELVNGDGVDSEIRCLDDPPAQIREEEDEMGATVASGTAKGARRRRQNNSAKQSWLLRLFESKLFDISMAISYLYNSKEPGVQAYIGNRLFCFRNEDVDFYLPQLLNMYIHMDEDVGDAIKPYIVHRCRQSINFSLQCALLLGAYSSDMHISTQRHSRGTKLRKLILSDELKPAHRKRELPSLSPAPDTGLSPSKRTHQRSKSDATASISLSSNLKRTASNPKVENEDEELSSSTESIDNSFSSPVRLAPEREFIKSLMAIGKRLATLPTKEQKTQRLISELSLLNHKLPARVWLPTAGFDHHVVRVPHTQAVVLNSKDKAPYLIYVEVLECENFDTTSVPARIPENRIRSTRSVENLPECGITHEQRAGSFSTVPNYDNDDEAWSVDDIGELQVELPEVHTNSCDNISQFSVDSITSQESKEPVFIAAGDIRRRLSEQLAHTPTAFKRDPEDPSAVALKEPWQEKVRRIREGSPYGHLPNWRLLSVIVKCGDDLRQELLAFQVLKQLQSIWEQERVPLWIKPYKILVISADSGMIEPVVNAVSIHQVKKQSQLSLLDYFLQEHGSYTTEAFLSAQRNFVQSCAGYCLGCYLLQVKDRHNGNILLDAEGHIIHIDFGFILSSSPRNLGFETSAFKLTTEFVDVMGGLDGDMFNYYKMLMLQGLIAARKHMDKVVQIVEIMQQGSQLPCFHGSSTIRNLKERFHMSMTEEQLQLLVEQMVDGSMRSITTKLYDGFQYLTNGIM
Chain of PI3KC2B (O00750 whole entry): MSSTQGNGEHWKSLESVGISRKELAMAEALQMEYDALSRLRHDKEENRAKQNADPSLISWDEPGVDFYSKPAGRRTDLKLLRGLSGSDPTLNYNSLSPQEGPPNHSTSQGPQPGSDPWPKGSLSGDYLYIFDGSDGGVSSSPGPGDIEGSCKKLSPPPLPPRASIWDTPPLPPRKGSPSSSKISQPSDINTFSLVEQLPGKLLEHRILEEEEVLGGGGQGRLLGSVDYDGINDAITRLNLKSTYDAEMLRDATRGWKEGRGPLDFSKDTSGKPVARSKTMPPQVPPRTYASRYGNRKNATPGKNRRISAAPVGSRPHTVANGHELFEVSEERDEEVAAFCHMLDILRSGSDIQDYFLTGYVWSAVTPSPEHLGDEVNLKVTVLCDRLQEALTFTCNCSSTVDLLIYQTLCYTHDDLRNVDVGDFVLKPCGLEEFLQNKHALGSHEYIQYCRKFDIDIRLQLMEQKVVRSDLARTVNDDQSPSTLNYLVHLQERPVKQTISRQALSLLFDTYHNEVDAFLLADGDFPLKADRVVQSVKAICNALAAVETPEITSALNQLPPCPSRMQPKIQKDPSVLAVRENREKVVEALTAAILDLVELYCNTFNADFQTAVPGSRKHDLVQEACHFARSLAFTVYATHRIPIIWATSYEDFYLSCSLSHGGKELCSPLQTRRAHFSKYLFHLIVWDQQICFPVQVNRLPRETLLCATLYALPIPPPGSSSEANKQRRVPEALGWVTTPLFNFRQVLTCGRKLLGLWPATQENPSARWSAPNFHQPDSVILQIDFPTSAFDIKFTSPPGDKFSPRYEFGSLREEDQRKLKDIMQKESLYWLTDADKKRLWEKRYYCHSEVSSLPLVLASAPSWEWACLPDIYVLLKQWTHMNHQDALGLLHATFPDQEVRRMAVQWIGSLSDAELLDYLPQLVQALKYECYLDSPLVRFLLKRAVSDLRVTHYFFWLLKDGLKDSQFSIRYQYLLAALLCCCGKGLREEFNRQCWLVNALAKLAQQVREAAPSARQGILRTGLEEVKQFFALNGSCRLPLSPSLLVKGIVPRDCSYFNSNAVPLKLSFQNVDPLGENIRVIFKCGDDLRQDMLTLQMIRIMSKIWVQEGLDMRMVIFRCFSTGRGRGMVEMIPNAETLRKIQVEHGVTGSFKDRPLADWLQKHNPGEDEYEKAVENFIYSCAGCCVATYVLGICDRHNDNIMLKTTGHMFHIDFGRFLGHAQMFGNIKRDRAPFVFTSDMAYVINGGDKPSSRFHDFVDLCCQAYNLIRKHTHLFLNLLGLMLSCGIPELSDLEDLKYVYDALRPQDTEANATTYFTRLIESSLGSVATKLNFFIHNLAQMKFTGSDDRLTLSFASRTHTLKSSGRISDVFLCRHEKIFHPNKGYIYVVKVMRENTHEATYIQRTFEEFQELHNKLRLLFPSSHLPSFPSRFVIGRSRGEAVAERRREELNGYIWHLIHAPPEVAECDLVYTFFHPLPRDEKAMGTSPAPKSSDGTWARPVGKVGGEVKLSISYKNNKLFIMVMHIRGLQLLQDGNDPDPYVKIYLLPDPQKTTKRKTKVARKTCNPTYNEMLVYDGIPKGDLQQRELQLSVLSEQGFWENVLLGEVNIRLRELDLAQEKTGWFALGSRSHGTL
Chain of PI3K p110a (P42336 whole entry): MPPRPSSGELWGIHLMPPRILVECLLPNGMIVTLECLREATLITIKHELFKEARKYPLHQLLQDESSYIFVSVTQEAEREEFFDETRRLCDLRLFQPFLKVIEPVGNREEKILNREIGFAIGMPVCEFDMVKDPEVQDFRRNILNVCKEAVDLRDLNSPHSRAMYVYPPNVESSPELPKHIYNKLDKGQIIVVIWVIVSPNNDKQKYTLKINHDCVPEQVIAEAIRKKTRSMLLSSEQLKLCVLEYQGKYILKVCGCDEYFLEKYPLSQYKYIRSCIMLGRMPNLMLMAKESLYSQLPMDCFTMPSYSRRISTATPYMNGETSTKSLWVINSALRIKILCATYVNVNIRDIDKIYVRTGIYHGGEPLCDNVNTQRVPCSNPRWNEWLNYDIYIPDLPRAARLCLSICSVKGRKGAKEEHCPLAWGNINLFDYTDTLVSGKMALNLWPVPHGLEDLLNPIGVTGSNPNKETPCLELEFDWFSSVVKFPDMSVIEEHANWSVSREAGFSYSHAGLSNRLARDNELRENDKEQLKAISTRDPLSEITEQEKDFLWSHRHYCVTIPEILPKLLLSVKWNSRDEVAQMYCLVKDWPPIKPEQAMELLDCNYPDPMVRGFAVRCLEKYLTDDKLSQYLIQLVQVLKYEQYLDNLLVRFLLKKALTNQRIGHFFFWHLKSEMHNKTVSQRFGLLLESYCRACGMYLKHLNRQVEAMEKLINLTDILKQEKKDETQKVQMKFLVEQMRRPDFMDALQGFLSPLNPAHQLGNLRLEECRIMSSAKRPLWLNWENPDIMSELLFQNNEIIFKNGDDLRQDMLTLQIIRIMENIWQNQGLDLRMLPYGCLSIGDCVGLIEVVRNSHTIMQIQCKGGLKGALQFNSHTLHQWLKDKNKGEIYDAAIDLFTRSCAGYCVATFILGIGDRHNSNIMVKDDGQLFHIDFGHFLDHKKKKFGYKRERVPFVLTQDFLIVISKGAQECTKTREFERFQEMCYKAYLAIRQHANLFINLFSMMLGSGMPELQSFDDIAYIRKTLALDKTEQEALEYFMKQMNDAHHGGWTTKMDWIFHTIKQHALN
Chain of PI3K p110a (P27986 whole entry partner): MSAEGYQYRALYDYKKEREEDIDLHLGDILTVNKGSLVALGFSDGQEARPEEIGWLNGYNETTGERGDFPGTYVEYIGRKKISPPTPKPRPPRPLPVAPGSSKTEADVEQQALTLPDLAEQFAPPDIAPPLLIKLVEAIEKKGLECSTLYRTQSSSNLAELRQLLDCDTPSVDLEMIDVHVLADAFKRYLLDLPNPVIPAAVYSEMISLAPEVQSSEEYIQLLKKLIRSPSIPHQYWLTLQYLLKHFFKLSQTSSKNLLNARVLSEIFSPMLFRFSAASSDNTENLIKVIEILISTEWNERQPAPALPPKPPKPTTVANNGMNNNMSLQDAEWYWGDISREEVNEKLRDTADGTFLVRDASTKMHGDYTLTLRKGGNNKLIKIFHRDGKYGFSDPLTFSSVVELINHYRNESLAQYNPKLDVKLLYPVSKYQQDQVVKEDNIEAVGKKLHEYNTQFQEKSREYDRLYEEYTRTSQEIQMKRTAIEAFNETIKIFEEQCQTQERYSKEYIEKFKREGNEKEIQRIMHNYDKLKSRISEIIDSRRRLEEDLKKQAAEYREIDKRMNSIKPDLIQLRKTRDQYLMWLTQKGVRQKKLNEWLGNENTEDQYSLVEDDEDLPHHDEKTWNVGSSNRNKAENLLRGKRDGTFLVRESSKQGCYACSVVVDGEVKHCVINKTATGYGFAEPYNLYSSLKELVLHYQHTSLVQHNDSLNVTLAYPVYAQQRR

SMILES | IC50 (PI4KIIIB) | IC50 (PI3K p110g) | IC50 (PI3KC2G) | IC50 (PI4KIIIA) | IC50 (PI3K p110a) | EC50 (HCV2a) | CC50 (Cell toxicity (CC50)) | other results
COc1ccc(-c2sc(NC(=O)CCC3CCCC3)nc2C)cc1S(=O)(=O)NC1CCNCC1 [Compound S-160] | < 100 nM | > 10000 nM | 100 to 1000 nM | – | – | – | – | IC50 (PI3KC2B): > 10000 nM
COc1ccc(-c2sc(NC(C)(C)C)nc2C)cc1S(=O)(=O)N[C@H]1CC[C@H](O)CC1 [Compound S-216] | < 100 nM | > 10000 nM | 1000 to 10000 nM | – | – | – | – | IC50 (PI3KC2B): > 10000 nM
COc1ncc(-c2sc(NC(=O)CC3CCOCC3)nc2C)cc1S(=O)(=O)Nc1ccc(F)cc1F [Compound S-260] | < 100 nM | > 10000 nM | > 10000 nM | < 100 nM | > 10000 nM | 100 to 1000 nM | > 10000 nM | –
COc1ccc(-c2sc(NC(=O)C3CCCC3)nc2C)cc1S(=O)(=O)Nc1ccc(O)cc1 [Compound 1] | – | – | – | – | – | – | – | effect on PI-4 (PI(4)P) levels in cells (PI(4)P): dose-dependent decrease; also recorded: decreases; effect on intracellular pools of PIP2 (PI(4,5)P2) (PI(4,5)P2): dose-dependent decrease; also recorded: decreases; effects on the ER (ER-localized calnexin): absence of any detectable effects on the ER; CC50 (in vitro): > 10000 nM; selection of resistance (HCV replicon): resistance was not able to be selected; EC50 (HCV): 365 nM
COc1ccc(-c2sc(NCC3CCCCC3)nc2C)cc1S(=O)(=O)NC1CCCNC1 (centres unmarked) [Compound S-115] | – | – | – | – | – | 100 to 1000 nM | > 10000 nM | –
COc1ncc(-c2sc(NC(=O)CC3CCOCC3)nc2C)cc1S(=O)(=O)Nc1ccc(O)cc1 [Compound S-261] | < 100 nM | – | 100 to 1000 nM | < 100 nM | 100 to 1000 nM | 1 to 100 nM | > 10000 nM | –
COc1ccc(-c2sc(NCC3CCCCC3)nc2C)cc1S(=O)(=O)Nc1cccc(C(C)(C)C)c1 [Compound S-32] | – | – | – | – | – | 1000 to 10000 nM | > 10000 nM | EC50 (HRV): < 1 nM; EC50 (Ebola): 1000 to 10000 nM
COc1ccc(-c2sc(NC(=O)CC3CCOCC3)nc2C)cc1S(=O)(=O)Nc1ccc(O)cc1 [Compound S-227] | < 100 nM | > 10000 nM | 1000 to 10000 nM | – | > 10000 nM | 1 to 100 nM | > 10000 nM | IC50 (PI3KC2B): > 10000 nM; EC50 (Ebola): 100 to 1000 nM; EC50 (Coxsackie virus B3): 1 to 100 nM; EC50 (Enterovirus 68): < 1 nM; EC50 (Enterovirus 71): 1 to 100 nM; EC50 (Poliovirus (WM-3)): 0.001 to 0.1 µM; EC50 (NV (GT1)): 100 to 1000 nM; EC50 [1]: > 10000 nM; EC50 (Dengue virus 2): > 10000 nM; EC50 (Influenza A virus H1N1): > 10000 nM; EC50 (MERS coronavirus): > 10 µM
COc1ccc(-c2sc(NC(C)C3CCOCC3)nc2C)cc1S(=O)(=O)NC1CCC(O)CC1 (centres unmarked) [Compound S-328] | – | – | – | – | – | – | – | EC50 (HRV; Table 5): 1 to 100 nM; EC50 (EV71; Table 5): 1 to 100 nM; EC50 (Coxsackie virus B3): 1 to 100 nM; EC50 (Enterovirus 68): 1 to 100 nM; EC50 (Enterovirus 71): 1 to 100 nM; EC50 (Poliovirus (WM-3)): 0.001 to 0.1 µM; EC50 [1]: > 10000 nM; EC50 (Dengue virus 2): > 10000 nM; EC50 (Influenza A virus H1N1): > 10000 nM; EC50 (MERS coronavirus): > 10 µM
COc1ncc(-c2sc(NC(=O)CC3CCOCC3)nc2C)cc1S(=O)(=O)NC1CCCC(O)C1 (centres unmarked) [Compound S-263] | – | – | – | – | – | 1 to 100 nM | > 10000 nM | –
COc1ccc(-c2sc(N[C@H](C)CC3CCCCC3)nc2C)cc1S(=O)(=O)NC1CCNCC1 [Compound S-145] | < 100 nM | > 10000 nM | – | 100 to 1000 nM | > 10000 nM | – | – | –
COc1ccc(-c2sc(NC(=O)CC3CCOCC3)nc2C)cc1S(=O)(=O)Nc1ccc(F)cc1 [Compound S-170] | < 100 nM | > 10000 nM | > 10000 nM | < 100 nM | > 10000 nM | – | – | –
COc1ccc(-c2sc(NC3CCCCCC3)nc2C)cc1S(=O)(=O)Nc1c(C)cccc1C [Compound S-98] | < 100 nM | > 10000 nM | – | > 10000 nM | > 10000 nM | 1000 to 10000 nM | > 10000 nM | EC50 (HRV): < 1 nM; EC50 (EV71): < 1 nM; EC50 (Coxsackie virus B3): 1 to 100 nM; EC50 (Enterovirus 68): < 1 nM; EC50 (Enterovirus 71): 1 to 100 nM; EC50 (Poliovirus (WM-3)): 0.001 to 0.1 µM; EC50 (NV (GT1)): 1000 to 10000 nM; EC50 [1]: > 10000 nM; EC50 (Dengue virus 2): > 10000 nM; EC50 (Influenza A virus H1N1): > 10000 nM; EC50 (MERS coronavirus): > 10 µM
COc1ncc(-c2sc(NC(=O)CC3CCOCC3)nc2C)cc1S(=O)(=O)Nc1cccc(O)c1 [Compound S-259] | < 100 nM | – | 1000 to 10000 nM | < 100 nM | 1000 to 10000 nM | – | – | –
COc1ccc(-c2sc(NC(C)C3CCOCC3)nc2C)cc1S(=O)(=O)Nc1ccccc1Cl (centres unmarked) [Compound S-316] | – | – | – | – | – | – | – | EC50 (HRV; Table 5): 1 to 100 nM; EC50 (EV71; Table 5): 1 to 100 nM; EC50 (Coxsackie virus B3): 1 to 100 nM; EC50 (Enterovirus 68): 1 to 100 nM; EC50 (Enterovirus 71): 1 to 100 nM; EC50 (Poliovirus (WM-3)): 0.1 to 1 µM; EC50 [1]: > 10000 nM; EC50 (Dengue virus 2): 1000 to 10000 nM; EC50 (Influenza A virus H1N1): 1000 to 10000 nM; EC50 (MERS coronavirus): 1 to 10 µM
COc1ccc(-c2sc(NC(=O)CC3CCOCC3)nc2C)cc1S(=O)(=O)Nc1ccc(O)cc1C [Compound S-231] | < 100 nM | > 10000 nM | 100 to 1000 nM | – | – | – | – | IC50 (PI3KC2B): > 10000 nM
COc1ccc(-c2sc(NC(=O)CC3CCOCC3)nc2C)cc1S(=O)(=O)Nc1cc(C)cc(O)c1 [Compound S-169] | < 100 nM | > 10000 nM | > 10000 nM | < 100 nM | > 10000 nM | – | – | –
COc1ccc(-c2sc(NC(C)C)nc2C)cc1S(=O)(=O)N[C@H]1CC[C@H](O)CC1 [Compound S-215] | < 100 nM | > 10000 nM | 1000 to 10000 nM | 1000 to 10000 nM | – | – | – | IC50 (PI3KC2B): > 10000 nM
COc1ccc(NS(=O)(=O)c2cc(-c3sc(NC4CCCCC4)nc3C)ccc2OC)c(C)c1 [Compound S-66] | – | – | – | – | – | 1000 to 10000 nM | > 10000 nM | EC50 (HRV): < 1 nM
COc1ncc(-c2sc(NC(=O)CC3CCOCC3)nc2C)cc1S(=O)(=O)Nc1cccc(C(=O)O)c1 [Compound S-265] | < 100 nM | > 10000 nM | 1000 to 10000 nM | < 100 nM | > 10000 nM | – | – | –
COc1ncc(-c2sc(NC(=O)CC3CCOCC3)nc2C)cc1S(=O)(=O)N[C@H]1CC[C@@H](O)CC1 [Compound S-262] | < 100 nM | – | 100 to 1000 nM | < 100 nM | > 10000 nM | – | – | –
COc1ccc(-c2sc(N[C@H](C)C3CCCCC3)nc2C)cc1S(=O)(=O)N[C@H]1CC[C@H](O)CC1 [Compound S-193] | < 100 nM | – | > 10000 nM | – | – | – | – | IC50 (PI3KC2B): > 10000 nM
COc1ccc(-c2sc(NC3CCCCC3)nc2C)cc1S(=O)(=O)Nc1ccc(O)cc1C [Compound S-106] | – | – | – | – | – | – | > 10000 nM | –
COc1ccc(-c2sc(N[C@H](C)C3CCCCC3)nc2C)cc1S(=O)(=O)NC1CCNCC1 [Compound S-147] | < 100 nM | > 10000 nM | – | 100 to 1000 nM | > 10000 nM | – | – | –
COc1ccc(-c2sc(NC(=O)CC3CCCC3)nc2C)cc1S(=O)(=O)Nc1ccc(O)cc1 [Compound S-1] | < 100 nM | > 10000 nM | < 100 nM | – | > 10000 nM | 1 to 100 nM | > 10000 nM | IC50 (PI3KC2B): > 10000 nM
